From ChEMBL document CHEMBL3352801, “Synthesis and lipid-lowering evaluation of 3-methyl-1H-purine-2,6-dione derivatives as potent and orally available anti-obesity agents” (Eur J Med Chem, 2014)
Converted amounts (≈) assume the structure as drawn. The source made the active and inactive calls. The calls are words filed in the database; no cut-off is given here.

Key:
Mus musculus [1] = test: Antiobesity activity in diet-induced obese C57Bl/6 mouse assessed as reduction in HOMA-IR value compound dosed po for 4 weeks with high-fat diet; format: functional, organism-based
Mus musculus [2] = test: Decrease in insulin resistance in po dosed diet-induced obese C57Bl/6 mouse assessed as induction of insulin secretion by insulin tolerance test; format: functional, organism-based
Mus musculus [3] = test: Decrease in insulin resistance in diet-induced obese C57Bl/6 mouse assessed as induction of insulin secretion at 20 mg/kg/day, po for 4 weeks by insulin tolerance test; format: functional, organism-based
Mus musculus [4] = test: Antiobesity activity in diet-induced obese C57Bl/6 mouse assessed as normal liver morphology and histology at 50 mg/kg/day, po for 4 weeks administered with high-fat diet by Oil Red O staining-based histological method; format: functional, organism-based
Mus musculus [5] = test: Increase in glucose tolerance in po dosed diet-induced obese C57Bl/6 mouse by oral glucose tolerance test; format: functional, organism-based
Mus musculus [6] = test: Increase in glucose tolerance in diet-induced obese C57Bl/6 mouse at 20 mg/kg/day, po for 4 weeks by oral glucose tolerance test; format: functional, organism-based
Mus musculus [7] = test: Antiobesity activity in diet-induced obese C57Bl/6 mouse assessed as reduction in FFA level compound dosed po for 4 weeks with high-fat diet; format: functional, organism-based
Mus musculus [8] = test: Antiobesity activity in diet-induced obese C57Bl/6 mouse assessed as change in insulin level compound dosed po for 4 weeks with high-fat diet; format: functional, organism-based
Mus musculus [9] = test: Antiobesity activity in diet-induced obese C57Bl/6 mouse assessed as reduction in fasting blood glucose compound dosed po for 4 weeks with high-fat diet; format: functional, organism-based
Mus musculus [10] = test: Antiobesity activity in diet-induced obese C57Bl/6 mouse assessed as alteration of adipose tissue morphology at 20 to 50 mg/kg/day, po for 4 weeks administered with high-fat diet by Oil Red O staining-based histological method; format: functional, organism-based
Mus musculus [11] = test: Decrease in insulin resistance in diet-induced obese C57Bl/6 mouse assessed as induction of insulin secretion at 20 mg/kg, po as single dose by insulin tolerance test; format: functional, organism-based; parameters: dose 20 mg/kg
Mus musculus [12] = test: Increase in glucose tolerance in diet-induced obese C57Bl/6 mouse at 50 mg/kg/day, po for 4 weeks by oral glucose tolerance test; format: functional, organism-based
Mus musculus [13] = test: Antiobesity activity in diet-induced obese C57Bl/6 mouse assessed as reduction in fat accumulation in liver at 20 to 50 mg/kg/day, po for 4 weeks administered with high-fat diet by Oil Red O staining-based histological method; format: functional, organism-based
Mus musculus [14] = test: Antiobesity activity in diet-induced obese C57Bl/6 mouse assessed as reduction in LDL level compound dosed po for 4 weeks with high-fat diet; format: functional, organism-based
Mus musculus [15] = test: Decrease in insulin resistance in diet-induced obese C57Bl/6 mouse assessed as induction of insulin secretion at 50 mg/kg/day, po for 4 weeks by insulin tolerance test; format: functional, organism-based
Mus musculus [16] = test: Increase in glucose tolerance in diet-induced obese C57Bl/6 mouse at 20 mg/kg, po as single dose by oral glucose tolerance test; format: functional, organism-based; parameters: dose 20 mg/kg
Mus musculus [17] = test: Antiobesity activity in diet-induced obese C57Bl/6 mouse assessed as reduction in lipid droplets in liver at 50 mg/kg/day, po for 4 weeks administered with high-fat diet by Oil Red O staining-based histological method; format: functional, organism-based
Mus musculus [18] = test: Antiobesity activity in diet-induced obese C57Bl/6 mouse assessed as increase in HDL level compound dosed po for 4 weeks with high-fat diet; format: functional, organism-based
Mus musculus [19] = test: Antiobesity activity in diet-induced obese C57Bl/6 mouse assessed as reduction in triglyceride level compound dosed po for 4 weeks with high-fat diet; format: functional, organism-based
Mus musculus [20] = test: Antiobesity activity in diet-induced obese C57Bl/6 mouse assessed as reduction in size of fat cells at 20 mg/kg/day, po for 4 weeks administered with high-fat diet by Oil Red O staining-based histological method; format: functional, organism-based
Mus musculus [21] = test: Antiobesity activity in diet-induced obese C57Bl/6 mouse assessed as reduction in fat accumulation in liver at 50 mg/kg/day, po for 4 weeks administered with high-fat diet by Oil Red O staining-based histological method; format: functional, organism-based
Rattus norvegicus [22] = test: Acute toxicity in Sprague-Dawley rat assessed as mortality at 2.5 g/kg, po as single dose measured after 7 days; format: organism-based; details: in vivo, 2500 mg/kg, 168 h
Mus musculus [23] = test: Toxicity in diet-induced obese C57Bl/6 mouse assessed as change in ALT level at 50 mg/kg/day, po for 4 weeks administered with high-fat diet (reference value: 33.00 +/- 18.23 U/L); format: organism-based; parameters: route oral; details: in vivo, 672 h
Mus musculus [24] = test: Increase in glucose tolerance in diet-induced obese C57Bl/6 mouse assessed as rate of reducing plasma glucose at 50 mg/kg/day, po for 4 weeks by oral glucose tolerance test; format: functional
Mus musculus [25] = test: Antiobesity activity in diet-induced obese C57Bl/6 mouse assessed as reduction in LDL level at 50 mg/kg/day, po for 4 weeks administered with high-fat diet (reference value: 0.14 +/- 0.07 mM); format: functional
[26] = Tmax in Sprague-Dawley rat at 5 mg/kg, iv; format: ADME, organism-based; parameters: dose 5 mg/kg, route intravenous; details: in vivo
Mus musculus [27] = test: Antiobesity activity in diet-induced obese C57Bl/6 mouse assessed as reduction in triglyceride level at 50 mg/kg/day, po for 4 weeks administered with high-fat diet (reference value: 0.93 +/- 0.09 mM); format: functional
[28] = Total clearance in Sprague-Dawley rat at 20 mg/kg, po; format: ADME, organism-based; parameters: dose 20 mg/kg, route oral; details: in vivo
[29] = Volume of distribution in Sprague-Dawley rat at 5 mg/kg, iv; format: ADME, organism-based; parameters: dose 5 mg/kg, route intravenous; details: in vivo
Mus musculus [30] = test: Toxicity in diet-induced obese C57Bl/6 mouse assessed as change in AST level at 50 mg/kg/day, po for 4 weeks administered with high-fat diet (reference value: 125.00 +/- 35.00 U/L); format: organism-based; parameters: route oral; details: in vivo, 672 h
Mus musculus [31] = test: Antiobesity activity in diet-induced obese C57Bl/6 mouse assessed as change in insulin level at 50 mg/kg/day, po for 4 weeks administered with high-fat diet (reference value: 11.85 +/- 2.6 mU); format: functional
Mus musculus [32] = test: Increase in glucose tolerance in diet-induced obese C57Bl/6 mouse assessed as time required for reducing plasma glucose to initial state at 50 mg/kg/day, po for 4 weeks by oral glucose tolerance test; format: functional
Mus musculus [33] = test: Antiobesity activity in diet-induced obese C57Bl/6 mouse assessed as loss of epididymal fat mass at 50 mg/kg/day, po for 4 weeks administered with high-fat diet; format: functional
Mus musculus [34] = test: Antiobesity activity in diet-induced obese C57Bl/6 mouse assessed as reduction in HOMA-IR value at 50 mg/kg/day, po for 4 weeks administered with high-fat diet (reference value: 3.06 +/- 0.85 no_unit); format: functional
Mus musculus [35] = test: Antiobesity activity in diet-induced obese C57Bl/6 mouse assessed as loss of liver weight at 50 mg/kg/day, po for 4 weeks administered with high-fat diet; format: functional
[36] = Half life in Sprague-Dawley rat at 20 mg/kg, po; format: ADME, organism-based; parameters: dose 20 mg/kg, route oral; details: in vivo
Mus musculus [37] = test: Antiobesity activity in diet-induced obese C57Bl/6 mouse assessed as increase in HDL level at 50 mg/kg/day, po for 4 weeks administered with high-fat diet (reference value: 0.60 +/- 0.17 mM); format: functional
Rattus norvegicus [38] = test: Volume of distribution in Sprague-Dawley rat at 20 mg/kg, po; format: ADME, organism-based; parameters: dose 20 mg/kg, route oral; details: in vivo
[39] = Tmax in Sprague-Dawley rat at 20 mg/kg, po; format: ADME, organism-based; parameters: dose 20 mg/kg, route oral; details: in vivo
[40] = Cmax in Sprague-Dawley rat at 5 mg/kg, iv; format: ADME, organism-based; parameters: dose 5 mg/kg, route intravenous; details: in vivo
Mus musculus [41] = test: Antiobesity activity in diet-induced obese C57Bl/6 mouse assessed as reduction in hepatic triglyceride level at 50 mg/kg/day, po for 4 weeks administered with high-fat diet by Oil Red O staining-based histological method; format: functional; parameters: scale not given: the % may be the effect or the level left
Rattus norvegicus [42] = test: Acute toxicity in Sprague-Dawley rat assessed as clinical signs at 2.5 g/kg, po as single dose measured after 7 days; format: organism-based; details: in vivo, 2500 mg/kg, 168 h
Mus musculus [43] = test: Antiobesity activity in diet-induced obese C57Bl/6 mouse assessed as reduction in fasting blood glucose at 50 mg/kg/day, po for 4 weeks administered with high-fat diet (reference value: 5.0 +/- 1.30 mM); format: functional
3T3-L1 = test: Inhibition of triglyceride accumulation in mouse 3T3L1 cells at 10 uM after 24 hrs; format: functional; details: 3T3-L1, 24 h
[44] = Cmax in Sprague-Dawley rat at 20 mg/kg, po; format: ADME, organism-based; parameters: dose 20 mg/kg, route oral; details: in vivo
Mus musculus [45] = test: Antiobesity activity in diet-induced obese C57Bl/6 mouse assessed as reduction in body weight at 50 mg/kg/day, po for 4 weeks administered with high-fat diet; format: functional; parameters: scale not given: the % may be the effect or the level left
Mus musculus [46] = test: Antiobesity activity in diet-induced obese C57Bl/6 mouse assessed as reduction in FFA level at 50 mg/kg/day, po for 4 weeks administered with high-fat diet (reference value: 19.55 +/- 1.57 ng/L); format: functional
[47] = Total clearance in Sprague-Dawley rat at 5 mg/kg, iv; format: ADME, organism-based; parameters: dose 5 mg/kg, route intravenous; details: in vivo
[48] = Oral bioavailability in Sprague-Dawley rat at 20 mg/kg; format: ADME, organism-based; details: in vivo
Mus musculus [49] = test: Toxicity in diet-induced obese C57Bl/6 mouse assessed as change in food intake at 50 mg/kg/day, po for 4 weeks administered with high-fat diet; format: organism-based; parameters: route oral; details: in vivo, 672 h
[50] = Half life in Sprague-Dawley rat at 5 mg/kg, iv; format: ADME, organism-based; parameters: dose 5 mg/kg, route intravenous; details: in vivo
[51] = AUC (0 to t) in Sprague-Dawley rat at 5 mg/kg, iv; format: ADME, organism-based; parameters: dose 5 mg/kg, route intravenous; details: plasma
Rattus norvegicus [52] = test: Acute toxicity in Sprague-Dawley rat assessed as change in body weight at 2.5 g/kg, po as single dose measured after 7 days; format: organism-based; details: in vivo, 2500 mg/kg, 168 h
[53] = AUC (0 to t) in Sprague-Dawley rat at 20 mg/kg, po; format: ADME, organism-based; parameters: dose 20 mg/kg, route oral; details: plasma
[54] = Solubility of the compound at room temperature; format: physicochemical

SMILES: CCn1c(-c2ccc(OCCN(C)c3ccccn3)cc2)nc2c1c(=O)n(Cc1ccccc1C#N)c(=O)n2C [listing 1 of 2 here]
- Activity (Mus musculus [1]): Dose-dependent effect
- Activity (Mus musculus [2]): Dose-dependent effect
- Activity (Mus musculus [3]): Active
- Activity (Mus musculus [4]): Active
- Activity (Mus musculus [5]): Dose-dependent effect
- Activity (Mus musculus [6]): Active
- Activity (Mus musculus [7]): Dose-dependent effect
- Activity (Mus musculus [8]): Dose-dependent effect
- Activity (Mus musculus [9]): Dose-dependent effect
- Activity (Mus musculus [10]): Active
- Activity (Mus musculus [11]): Active
- Activity (Mus musculus [12]): Active
- Activity (Mus musculus [13]): Active
- Activity (Mus musculus [14]): Dose-dependent effect
- Activity (Mus musculus [15]): Active
- Activity (Mus musculus [16]): Active
- Activity (Mus musculus [17]): Active
- Activity (Mus musculus [18]): Dose-dependent effect
- Activity (Mus musculus [19]): Dose-dependent effect
- Activity (Mus musculus [20]): Active
- Activity (Mus musculus [21]): Active

SMILES: CCn1c(-c2ccc(OCCN(C)c3ccccn3)cc2)nc2c1c(=O)n(Cc1ccccc1C#N)c(=O)n2C [listing 2 of 2 here]
- Activity (Rattus norvegicus [22]): Non-toxic
- Activity (Mus musculus [23]): 20 U/L
- Activity (Mus musculus [24]): >2 %/min
- Activity (Mus musculus [25]): 0.11 mM
- Tmax [26]: 4.98 min
- Activity (Mus musculus [27]): 1.02 mM
- CL/F [28]: 1030 mL/min/kg
- Vd [29]: 142 L/kg
- Activity (Mus musculus [30]): 120 U/L
- Activity (Mus musculus [31]): 13.35 mU
- Time (Mus musculus [32]): >40 min
- Activity (Mus musculus [33]): 21.65%
- Activity (Mus musculus [34]): 3.06
- Activity (Mus musculus [35]): 16.8%
- half-life [36]: 378 min
- Activity (Mus musculus [37]): 1.96 mM
- Vd (Rattus norvegicus [38]): 416.501 L/kg
- Tmax [39]: 2.27 h
- Cmax [40]: 342 ng/mL
- Activity (Mus musculus [41]): 7.17%
- Activity (Rattus norvegicus [42]): Non-toxic
- Activity (Mus musculus [43]): 5.15 mM
- inhibition at 10 µM (3T3-L1): 64.5%
- Cmax [44]: 54.4 ng/mL
- Activity (Mus musculus [45]): 15.96%
- Activity (Mus musculus [46]): 22.67 ng/L
- clearance [47]: 189 mL/min/kg
- bioavailability [48]: 28%
- Activity (Mus musculus [49]): Non-toxic
- half-life [50]: 530 min
- AUC(0-t) [51]: 404 ng·h/mL
- Activity (Rattus norvegicus [52]): Non-toxic
- AUC(0-t) [53]: 453 ng·h/mL
- solubility [54]: 1000 µg/mL (≈ 1870 µM)
